Consider one compound from ChEMBL document CHEMBL1152536, “Molecular modeling of human acidic mammalian chitinase in complex with the natural-product cyclopentapeptide chitinase inhibitor argifin” (Bioorg Med Chem, 2009).

This experiment deals with Acidic mammalian chitinase (Homo sapiens, UniProt Q9BZP6). Nature of the experiment: Inhibition of human acidic mammalian chitinase.

The structures appear in SMILES notation.

Acidic mammalian chitinase, sequence (Q9BZP6 whole entry): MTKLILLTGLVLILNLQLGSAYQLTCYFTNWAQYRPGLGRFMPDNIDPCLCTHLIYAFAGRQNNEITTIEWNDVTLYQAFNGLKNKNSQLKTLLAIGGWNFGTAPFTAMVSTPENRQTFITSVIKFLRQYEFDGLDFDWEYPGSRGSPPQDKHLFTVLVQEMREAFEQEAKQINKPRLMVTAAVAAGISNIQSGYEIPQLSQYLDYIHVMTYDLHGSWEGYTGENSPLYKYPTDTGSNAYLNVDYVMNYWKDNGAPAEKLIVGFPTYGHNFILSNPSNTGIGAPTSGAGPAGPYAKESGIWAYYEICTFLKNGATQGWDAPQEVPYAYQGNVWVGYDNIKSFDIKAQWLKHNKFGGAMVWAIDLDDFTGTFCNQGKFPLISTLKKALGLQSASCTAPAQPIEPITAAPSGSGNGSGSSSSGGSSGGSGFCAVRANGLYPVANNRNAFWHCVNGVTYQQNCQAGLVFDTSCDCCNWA

With `CNC(=O)NC(=N)NCCC[C@@H]1NC(=O)[C@@H](C)NC(=O)C[C@@H](C(=O)O)NC(=O)C[C@@H](C(=O)O)NC(=O)[C@H](Cc2ccccc2)N(C)C1=O` [ARGIFIN], half-maximal inhibition (IC50) was put at 4.5 µM.
